Measured values published in patent US4886886A, “Substituted 1,3,4,9-tetrahydropyrano[3,4-b]indole-1-acetic acids” (American Home Products Corporation, priority 1988, dated 1989).

Key:
[1] = tested on: Phenylbenzoquinone-induced Writhing; experiment: Drug Effects on Phenylbenzoquinone-induced Writhing in Mice; format: in vivo, Male Swiss albino mice; details: mouse, 60 min before PBQ
Protocol: A further test used to determine the utility of the compounds of the present invention is designated: Drug Effects on Phenylbenzoquinone-induced Writhing in Mice
The objective of this test is to determine the ability of test drugs to inhibit the nociceptive (pain) response of mice injected with a chemical irritant. This test is a primary screen for both peripheral and centrally acting analgesic drugs.
Male Swiss albino mice (15-25 g). The animals are fasted for 18 hours prior to use but have free access to water.
(§1) Drug Preparation and Administration:
Drugs are dissolved or suspended according to their solubility in 0.5% Tween 80 in distilled water. They are administered by gastric gavage in a volume of 5 mL/kg. For primary screening all drugs are administered at the arbitary dosage of 25 mg/kg, p.o. to a group of 10 mice.
A modification of the method of Siegmund et al, Proc. Soc. Exp. Biol. Med., 95, 729-731 […] is used. Groups of 5 mice are dosed with the test compound or vehicle control. Sixty minutes later the animals are injected i.p. with 0.3 mL/20 g body weight of a 0.02% solution of phenylbenzoquinone (PBQ; 2-phenyl-1,4-benzoquinone) and placed in individual observation boxes. The number of writhing or abdominal squirming movements made by each mouse during the following 15 min. period is counted. The experiment is repeated with another group of 5 mice and the mean number of writhes per mouse for a group of 10 mice is calculated.
Drug treated and vehicle-treated control groups are compared and the percentage protection conferred by the drug is calculated: [formula]
where c=mean number of writhes in the control group
where t=mean number of writhes in the test drug group

[2] = tested on: Adjuvant Edema; experiment: Preventative Adjuvant Edema; format: in vivo, Male Sprague Dawley rats; details: rat, given days 0, 1 and 2, edema volume on day 3; for Preventative Adjuvant Edema, percent inhibition: 25 mg/kg p.o.
Protocol: This test is a primary screen for anti-inflammatory drugs.
Male Sprague Dawley rats (180-200 g) are used. The animals have free access to water but food is withdrawn 18 hours before testing.
Drug Preparations and Administration:
Freund's complete adjuvant is prepared by suspending 5 mg of killed and dried Mycobacterium butyricum (Difco) in 1 mL mineral oil. The test compounds are dissolved, or suspended in 0.5% Tween 80 in distilled water according to their solubility. For primary screening all drugs are administered by gastric lavage at the arbitrary dosage of 25 mg/kg, p.o. in a volume of 0.5 mL/100 g body weight to groups of 10 animals.
The method is essentially that described by Wax et al, J. Pharmacol. Exp. Ther., 192, 166-171 (1975). Groups of rats are injected intradermally in the left hind paw with 0.1 mL of Freund's complete adjuvant. The test compound or vehicle is administered immediately before the adjuvant, 24 hours and 48 hours after the adjuvant (days 0, 1 and 2). The injected hind paw volume is measured before the injection of adjuvant and 24 hrs. after the last drug administration (day 3) by means of a plethysmometer (Buxco Electronics Inc.). The difference between the hind paw volume on day 0 and day 3 represents the edema volume. Etodolac (25 mg/kg, p.o.) is included as a positive control.
The mean edema volume (expressed as mL±SEM) is calculated for each group and the percentage protection conferred by the drug is calculated: [formula] where c is the mean edema volume for the vehicle-treated (0.5% Tween 80 in distilled water) controls and t is the mean edema volume for the drug treated group.

[3] = tested on: reaction of rats to painful stimulation applied to an inflamed paw; experiment: Randall Selitto Test in the Rat; format: in vivo, Male Sprague Dawley rats; details: po, by gastric gavage, 24 hours after adjuvant, pain threshold 1 hour later, read-out: Randall Selitto, ED50 (dose which causes analgesia in 50% of the animals)
Text: An additional test used to determine the utility of the compounds of the present invention is designated: Randall Selitto Test in the Rat
The objective of this test is to assess the potency of peripheral and central acting drugs in inhibiting the reaction of rats to painful stimulation applied to an inflamed paw.
Male Sprague Dawley rats (180-200 g) are used. The animals are fasted overnight prior to drug administration.
as §1
Freund's Complete Adjuvant (FCA) is prepared by suspending 5 mg killed and dried mycobacterium butyricum (Difco) in 1 mL mineral oil. The test compounds are dissolved or suspended in 0.5% Tween 80 in distilled water according to their solubility. They are administered by gastric gavage in a volume of 0.5 mL/100 g body weight to groups of 10 animals.
Ten rats are used per group. The method is essentially that described by Randall and Selitto, Arch. Int. Pharmacodyn. […] The force is continuously monitored by a pointer moving along a linear scale and is measured in grams. […] The pain threshold (vocalization) is determined 1 hour later in the inflamed paw of the treated and control groups. […]
Each animal which has a reading 1.5 times greater than the mean reading of the control-group will be considered as responsive (having an analgesic effect) to treatment. The number of animals showing an analgesic effect is then determined in each group. […]

Structure (SMILES) | Phenylquinone Writhing in Mice, percent inhibition ([1]; 10 mg/kg p.o.) [percent inhibition] | Preventative Adjuvant Edema, percent inhibition [2] [percent inhibition] | ED50 [3] [mg/kg] | ED50 ([1]; po, 1 h, p.o., read-out: Phenylquinone Writhing in Mice, ED50) [mg/kg] | Phenylquinone Writhing in Mice, percent inhibition ([1]; 200 mg/kg p.o.) [percent inhibition] | ED50 ([2]; po, 72 h, p.o.) [mg/kg]
C=CCc1cccc2c3c([nH]c12)C(CC)(CC(=O)O)OCC3C (single isomer, unassigned) [Example 3, 1-Ethyl-1,3,4,9-tetrahydro-4-methyl-8-(2-propenyl)-pyrano[3,4-b]indole-1-acetic Acid] | 20 | 57 |  |  |  | 
C=CCc1c(F)ccc2c3c([nH]c12)C(CC)(CC(=O)O)OCC3 (stereo not shown) [Example 1, 1-Ethyl-7-fluoro-1,3,4,9-tetrahydro-8-(2-propenyl)-pyrano[3,4-b]indole-1-acetic Acid] |  | 83 | 0.7 | 54.7 |  | 
C=CCc1cccc2c3c([nH]c12)C(CC)(CC(=O)O)OCC3 (stereo not shown) [Example 2, 1-Ethyl-1,3,4,9-tetrahydro-8-(2-propenyl)-pyrano[3,4-b]-1-acetic Acid] |  |  |  |  | 42 | 9
